The text below walks through data of patent US9422527B2, “Drug target site within gp120 of HIV” (priority 2011, dated 2016).

Read-outs that look alike come from different tables or passages of the source.

For data set [1], the system named is pNL4-3 HIV-1 virus. The experiment in a line: microbe, parasite or virus in culture. In kind it is cell-based. The following applies: virus to cell infection, pNL4-3, X4 tropism. Here is the method:
Fully infectious HIV-1 is produced from proviral reference DNA reflecting a reference wild-type HIV-1 virus (pNL4-3, Genbank #AF003888).
(§1) Format for virus to cell infection: Briefly, the assay was performed in 6 well tissue culture plates and included 50'000 HIV-producing cells (HeLa) in a final volume of 2 mL DMEM medium (Gibco, Parsley, UK). After 2 days of incubation, […] of viral supernatant was added to 5'000 pre-incubated HIV-reporter cells (HeLaCCR5) in a final volume of […] of RPMI medium (Gibco, Parsley, UK) including […] of substances to be tested.
(§2) In this experiment only pNL4-3 reference HIV strain was used.
Graphs in FIG. 10 show the inhibition curves as percent of virus inhibition as a function of increasing concentrations of each compound. The table in FIG. 10 reports the calculated parameters of HIV inhibition (IC50, IC90 and Hill's coefficient).

The subject of data set [2] is HIV-reporter cells (HeLaCCR5). The experiment in a line: cytotoxicity microscopically observed in virus-to-cell infection format. In kind it is cell-based. The following applies: highest concentration. As for the experimental part:
as §1, §2

Data set [3] has as its system HIV. As to the kind of experiment: profiling of anti-HIV activity, summary over lab strains. To be noted: summary of Example 2 results. In kind it is cell-based, HIV-1.
Data set [4] concerns pNL-Bal HIV-1 virus. To be noted: for Rf (resistance factor): pNL-Bal reference strain, ratio to itself.
Method: (§3) Two compounds were evaluated for their activity as inhibitor of HIV replication on three different lab strains using the deCIPhR cellular format.
(§4) Compound stocks were prepared as 1.5 mM solution in 100% DMSO and vials were agitated for two hours at 50° C. Stock solutions were kept at −20° C., light protected as aliquots. Working dilutions (1/3 log) were prepared extemporaneously by serial dilutions in H2O/DMSO (95/5). Ten μL of working dilutions were then pipetted and directly tested for anti-HIV activity in the 200 μL final volume of the deCIPhR cellular assay format, yielding final concentrations of 7'500, 3'481, 1'616, 750, 348, 162, 75, 35, 16, 8 and 3 nM.
(§5) The DNA sequence coding for Vpu, Tat, Rev, Env, and Nef from the CCR5-tropic clone BAL2 (HIVBAL2A, Genbank accession number #M68894) was introduced by PCR-cloning into the reference proviral strain pNL4-3 (Genbank accession number #AF324493), where it replaced the corresponding region. Presence of insert was ascertained by restriction digest analysis and double sequencing on ABI 310 prism sequencer. After transfection, pNL-BaL produces a full-length infectious virus often used as reference for a B-Subtype, CCR5-tropic strain (Donaldson et al., 1994).
(§6) Principle of Dual-Enhancement of Cell-Infection to Phenotype Resistance (deCIPhR™): deCIPhR test is a proprietary assay system developed by InPheno AG (FIG. 7):
(§7) Fully infectious HIV-1 is produced from a proviral reference DNA reflecting a reference HIV-1 virus. Recombinants carrying an exchanged specific-sequence (e.g. mutants resistant to existing HIV-1 inhibitors or sequences issued from clinical situations) can easily be engineered by PCR-based amplification/ligation (see paragraph 3). The unique test format allows 3 to 5 rounds of viral replication and permits a dynamic parallel read-out of viral fitness and resistance to the respective drugs under investigation. Colorimetric readout (405 nm) is translated in percent viral inhibition through normalization with positive and negative control wells included in each 96 well-plate.
(§8) Each mutated proviral DNA is transfected into a human epitheloid cell line using lipofectant agent (lipofectamine 2000, Invitrogen) following the manufacturer's instructions. Cell to cell spread and replication of recombinant viruses is allowed for but also restricted to a period of four days in the absence or presence of specific drugs by co-culture with a second cell line expressing both chemokine receptors CXCR4 and CCR5. Finally, culture supernatants are transferred to a third reporter cell line also expressing both kinds of co-receptors. The infection is incubated for another 48 hours period, after which cells are fixed (formaldehyde/glutaraldehyde) prior to incubation with a chromogenic substrate for beta-galactosidase, typically ortho-nitrophenyl-galactopyranoside.
(§9) A range of twelve concentrations of each compound was tested in triplicates in the deCIPhR format on each mutated provirus.
(§10) The two compounds under investigation were tested along with reference compounds T20 and EFV on three wild-type viruses (pNL4-3, green curves; pNL-Bal, blue curves and pNL-AD87, orange curves) using the deCIPhR cellular system (see paragraph 4.1).
Data set [5] concerns "G-I-A" mutant (pNL-Bal, gp41 V38A). To be noted: for IC50: "G-I-A" mutant, R5; for Rf (resistance factor: IC50 on mutant virus / IC50 on reference strain): "G-I-A" vs pNL-Bal; for Resistance factor (IC50 mut/IC50 wt) IC50 fold increase: Table II, "G-I-A" vs wild-type pNL-Bal.
In data set [6] the test system is "D-I-A" mutant (pNL-Bal, gp41 G36D, V38A). The following applies: for IC50: "D-I-A" mutant, R5; for Rf (resistance factor: IC50 on mutant virus / IC50 on reference strain): "D-I-A" vs pNL-Bal; for Resistance factor (IC50 mut/IC50 wt) IC50 fold increase: Table II, "D-I-A" vs wild-type pNL-Bal.
Data set [7] has as its system deCIPhR cellular system. The following applies: at tested concentrations.
From the text: as §8, §10
The subject of data set [8] is pNL-Bal HIV-1 virus. The experiment in a line: microbe, parasite or virus in culture. To be noted: Human immunodeficiency virus 1, BAL.
Method: as §3, §4, §5, §6, §7, §8, §9, §10
Data set [9] has as its system pNL-AD87 HIV-1 virus. The experiment in a line: microbe, parasite or virus in culture. The following applies: Human immunodeficiency virus 1.
Method: as §3, §4
(§11) The DNA sequence coding for Vpu, Tat, Rev, Env, and Nef from the CCR5-tropic clone AD87 (HIV strain AD8, Genbank accession number #AF004394) was introduced by PCR-cloning into the reference proviral strain pNL4-3 (Genbank accession number #AF324493), where it replaced the corresponding region. Presence of insert was ascertained by restriction digest analysis and double sequencing on ABI 310 prism sequencer. After transfection, pNL-AD87 produces a full-length infectious virus often used as reference for a B-Subtype, CCR5-tropic strain (Theodore et al., 1996).
as §6
(§12) Fully infectious HIV-1 is produced from a proviral reference DNA reflecting a reference HIV-1 virus. Recombinants carrying an exchanged specific-sequence (e.g. mutants resistant to existing HIV-1 inhibitors or sequences issued from clinical situations) can easily be engineered by PCR-based amplification/ligation (see paragraph 3). The unique test format allows 3 to 5 rounds of viral replication and permits a dynamic parallel read-out of viral fitness and resistance to the respective drugs under investigation. Colorimetric readout (405 nm) is translated in percent viral inhibition through normalization with positive and negative control wells included in each 96 well-plate. […]
For data set [10], the system named is pNL4-3 HIV-1 virus. As to the kind of experiment: microbe, parasite or virus in culture. To be noted: Human immunodeficiency virus 1.
Method: as §4
(§13) Fully infectious HIV-1 is produced from a proviral reference DNA reflecting a reference HIV-1 virus. […] The unique test format allows 3 to 5 rounds of viral replication and permits a dynamic parallel read-out of viral fitness and resistance to the respective drugs under investigation. Colorimetric readout (405 nm) is translated in percent viral inhibition through normalization with positive and negative control wells included in each 96 well-plate.
as §8, §9
Data set [11] deals with pNL-AD87 HIV-1 virus. The following applies: cell to cell infection, pNL-AD87, R5 tropism.
Method: as §3, §4, §11, §6, §12
The subject of data set [12] is pNL4-3 HIV-1 virus. The following applies: cell to cell infection, pNL4-3, X4 tropism.
Method: as §4, §13, §8, §9
The subject of data set [13] is binding of gp120 to α4β7. As to the kind of experiment: gp120 binding to α4β7 in cell extracts (previous studies). The following applies: read-out: activity of inhibition of the binding of gp120 to α4β7. Also on record: species or system human. The source says:
FIG. 37: Activity of a panel of inhibitors in blocking the binding of gp120 to a4b7. (a) The left chart depicts data collected in example 3 using ELISA assay. (b) The right chart depicts data collected by screening cell extracts. Bold letters used for a compound denote active compounds. The remaining compounds are weak or non-inhibitors All assays were repeated six times (three times for each anti-gp120 mAb used in the case of the ELISA data) and an average was presented. All values were obtained within 5% deviation.
This method was advanced into an ELISA format and applied to screen the number of compounds provided within the research period.
Outcome: Repandusinic acid A inhibited the binding of gp120 to α4β7 with an activity of 1.2±0.1 μM using the described an ELISA assay.
The five-step assay developed was applied to screen the panel of compounds provided. […] The experiments were run in triplicate using two antibodies against gp120. The data was compiled and plotted (FIG. 37a) and compared against the results with less accuracy obtained in our prior studies (FIG. 37b). Only modest changes were observed between the in vitro studies conducted herein (FIG. 37a) and those conducted on cell lysates (FIG. 37b). Results obtained are described in detail in the figure legend to FIG. 37 herein above.

Take `O=C(CNC1CCCCC1)Nc1cccc(C(=O)Nc2cccc(C(F)(F)F)c2)c1` [T0520-5895]: the IC50 result in data set [1] was “inactive”; in [5], 7600 nM; in [6], more than 30000 nM; in data set [8] (read-out: IC50, extrapolated value) it was 15.1 µM; in data set [9], 250 nM; in data set [10], more than 30000 nM. Also, the figures for the signs of cytotoxicity result in data set [2] and in data set [7] were “signs of cytotoxicity” and “without signs of cytotoxicity”, respectively. In data set [3], the anti-HIV activity result was “significant anti-HIV activity”. In addition, in data set [4], the “Rf (resistance factor)” value is 1. The “Rf (resistance factor: IC50 on mutant virus / IC50 on reference strain)” value is given as 0.5 in data set [5] and more than 40 in data set [6]. Also, the “Resistance factor (IC50 mut/IC50 wt) IC50 fold increase” value in [5] is 0.5; in data set [6], more than 40.

Turning to enfuvirtide, the IC50 in data set [1] (read-out: IC50) came out at 48 nM; in data set [4] (read-out: IC50 (concentration inhibiting 50% of viral replication), cell to cell infection, pNL-Bal, R5 tropism), 10 nM; in data set [11], 63 nM; in data set [12], 76 nM; in data set [5] it was 127 nM; in data set [6], 2270 nM. Also, in data set [4], the “Rf (resistance factor)” value amounted to 1. Also, the results for the “Rf (resistance factor: IC50 on mutant virus / IC50 on reference strain)” value in data set [5] and in data set [6] were 12.7 and 227, respectively. The “Resistance factor (IC50 mut/IC50 wt) IC50 fold increase” value in data set [5] is given as 13; in [6], 227.

With `O=C(O)C=C(C(=O)OC1C2COC(=O)c3cc(O)c(O)c(O)c3-c3c(cc(O)c(O)c3O)C(=O)OC1C(O)C(OC(=O)c1cc(O)c(O)c(O)c1)O2)C1c2c(cc(O)c(O)c2O)C(=O)OC1C(=O)O` (stereo not shown) [Repandusinic acid A], the IC50 in data set [13] amounted to 9.08 µM.

For `O=C1Nc2ccc(Cl)cc2[C@@](C#CC2CC2)(C(F)(F)F)O1` [EFV, Efavirenz], the IC50 in [1] (Human immunodeficiency virus 1, read-out: IC50) worked out at 2 nM; in [5], 1.7 nM; in data set [6] it was 3 nM; in data set [8] (read-out: IC50 (concentration inhibiting 50% of viral replication)), 0.005 µM; in data set [9] it was 1 nM; in data set [10], 9 nM. Further, the “Rf (resistance factor)” value in [4] is given as 1. Besides, the “Rf (resistance factor: IC50 on mutant virus / IC50 on reference strain)” value in data set [5] came to 0.3; in data set [6], 0.6. Moreover, the “Resistance factor (IC50 mut/IC50 wt) IC50 fold increase” value was determined as 0.3 in data set [5] and 0.5 in data set [6].
